{"source": "patent US9717247B2", "about": "“Synergistic fungicidal active combinations” (BAYER CROPSCIENCE AG, priority 2003, dated 2017)", "key": {"[1]": {"system": "Botrytis cinerea", "experiment": "Botrytis cinerea test (in vitro)/microtitre plates", "type": "cell-based", "settings": "3 ppm, PDB, 7 days of incubation"}, "[2]": {"system": "Sphaerotheca fuliginea", "experiment": "Sphaerotheca fuliginea test (cucumber)/protective", "type": "in vivo", "settings": "Podosphaera fuliginea, 168 h, protective, 7 days after inoculation, read-out: Efficacy in % found"}, "[3]": {"system": "Puccinia recondita", "experiment": "Puccinia recondita test (wheat)/curative", "settings": "application rate 62.5 g/ha, curative, evaluation 8 days after inoculation"}, "[4]": {"system": "Rhizoctonia solani", "experiment": "Rhizoctonia solani test (in vitro)/microtitre plates", "type": "cell-based", "settings": "PDB, 5 days of incubation", "experimental": "Rhizoctonia solani Test (In Vitro)/Microtitre Plates The microtest is carried out in microtitre plates using potato dextrose broth (PDB) as liquid test medium. The active compounds are used as technical grade a.i., dissolved in acetone. For inoculation, a mycelium suspension of Rhizoctonia solani is used. After 5 days of incubation in the dark and with shaking (10 Hz) for each filled cavity of the microtitre plates, the light transmittance is determined with the aid of a spectrophotometer."}, "[5]": {"system": "Plasmopara viticola", "experiment": "Plasmopara viticola test (grapevine)/protective", "type": "in vivo", "settings": "protective, 6 days after inoculation"}, "[6]": {"system": "Alternaria solani", "experiment": "Alternaria solani test (tomato)/protective", "type": "in vivo", "settings": "protective, 3 days after inoculation"}, "[7]": {"system": "Gibberella zeae", "type": "cell-based", "settings": "0.3 ppm; in vitro, PDB, 3 days of incubation"}, "[8]": {"system": "Erysiphe graminis f.sp. hordei", "experiment": "Erysiphe test (barley)/protective", "type": "in vivo", "settings": "application rate 12.5 g/ha, protective, evaluation 6 days after inoculation"}, "[9]": {"system": "Botrytis cinerea", "experiment": "Botrytis cinerea test (bean)/protective", "settings": "protective, 2 days after inoculation"}, "[10]": {"system": "Pyrenophora teres", "experiment": "Pyrenophora teres test (barley)/curative", "settings": "in Hordeum vulgare, 288 h, read-out: Efficacy in % found"}, "[11]": {"system": "Erysiphe graminis f.sp. hordei", "experiment": "Erysiphe test (barley)/curative", "type": "in vivo", "settings": "application rate 25 g/ha, curative, evaluation 6 days after inoculation"}, "[12]": {"system": "Pyricularia oryzae", "type": "cell-based", "settings": "3 ppm; in vitro, PDB, 3 days of incubation"}}, "data": [{"smiles": "Cc1nn(C)c(F)c1C(=O)Nc1ccccc1C(C)CC(C)C", "note": "(centres unmarked) [(1-2), N-[2-(1,3-dimethylbutyl)phenyl]-5-fluoro-1,3-dimethyl-1H-pyrazole-4-carboxamide]", "values": [{"measurement": "Efficacy in % found", "setting": "[1]", "value": 35, "unit": "%"}, {"measurement": "pest or weed control at 0.5 g/ha", "setting": "[2]; application rate 0.5 g/ha", "value": 0, "unit": "%"}, {"measurement": "pest or weed control at 1 g/ha", "setting": "[2]; application rate 1 g/ha", "value": 18, "unit": "%"}, {"measurement": "pest or weed control at 2 g/ha", "setting": "[2]; application rate 2 g/ha", "value": 30, "unit": "%"}, {"measurement": "pest or weed control at 4 g/ha", "setting": "[2]; application rate 4 g/ha", "value": 20, "unit": "%"}, {"measurement": "Efficacy in % found", "setting": "[3]", "value": 94, "unit": "%"}, {"measurement": "Efficacy in % found", "setting": "[4]; 0.003 ppm", "value": 30, "unit": "%"}, {"measurement": "Efficacy in % found", "setting": "[4]; 1 ppm", "value": 40, "unit": "%"}, {"measurement": "Efficacy in % found", "setting": "[5]; application rate 25 g/ha", "value": 0, "unit": "%"}, {"measurement": "Efficacy in % found", "setting": "[5]; application rate 50 g/ha", "value": 0, "unit": "%"}, {"measurement": "Efficacy in % found", "setting": "[6]; application rate 1 g/ha", "value": 3, "unit": "%"}, {"measurement": "Efficacy in % found", "setting": "[6]; application rate 2 g/ha", "value": 23, "unit": "%"}, {"measurement": "Efficacy in % found", "setting": "[7]", "value": 39, "unit": "%"}, {"measurement": "Efficacy in % found", "setting": "[8]", "value": 0, "unit": "%"}, {"measurement": "Efficacy in % found", "setting": "[9]; application rate 5 g/ha", "value": 33, "unit": "%"}, {"measurement": "Efficacy in % found", "setting": "[9]; application rate 10 g/ha", "value": 64, "unit": "%"}, {"measurement": "Efficacy in % found", "setting": "[9]; application rate 20 g/ha", "value": 66, "unit": "%"}, {"measurement": "pest or weed control at 25 g/ha", "setting": "[10]", "value": 29, "unit": "%"}, {"measurement": "pest or weed control at 62.5 g/ha", "setting": "[10]", "value": 71, "unit": "%"}, {"measurement": "Efficacy in % found", "setting": "[11]", "value": 0, "unit": "%"}, {"measurement": "Efficacy in % found", "setting": "[12]", "value": 17, "unit": "%"}]}, {"smiles": "COC(=O)Nc1nc2ccccc2[nH]1", "note": "[(10-3) carbendazim, carbendazim]", "values": [{"measurement": "Efficacy in % found", "setting": "[1]", "value": 86, "unit": "%"}]}, {"smiles": "CSC1=N[C@@](C)(c2ccccc2)C(=O)N1Nc1ccccc1", "note": "[(19-3) fenamidone]", "values": [{"measurement": "Efficacy in % found", "setting": "[7]", "value": 15, "unit": "%"}]}]}
